Experimental findings from patent US6686458B2, “Synthetic molecules that specifically react with target sequences” (The Regents of the University of California, priority 1997, dated 2004) are described below.

Series [1] deals with target sequence (SEQ ID NO. 1). Briefly: Fluorescence (quantum yield, excitation and emission maxima) of target sequence/biarsenical molecule complex. The format is physicochemical. As for the experimental part:
Formation of target sequence/biarsenical molecule (III) complex. Biarsenical molecule (III) (3 μl of 1 mM solution in DMSO) was added to 100 μl of 25 μM target sequence (SEQ. ID NO. 1) in 25 mM phosphate, pH 7.4, 100 mM KCl, 1 mM mercaptoethanesulfonate. After 1.5 hours, the reaction mixture (at room temperature) was injected onto a Dionex IonPac NS1 reverse phase HPLC column, gradient 20% to 46% acetonitrile (0.1% TFA) from 3 to 17 minutes. The complex eluted at 14.7 minutes (Free target sequence elutes at 12.6 minutes.) Mass spectrum analysis indicated a molecular weight of 2414.99 Da and the calculated molecular weight for the 1:1 complex was 2415.33 Da.
Quantum yield of target sequence/biarsenical molecule(III) complex. Solutions of fluorescein in 0.1 N NaOH and of target sequence/biarsenical molecule(III) complex in 25 mM phosphate, pH 7.4 and 100 mM KCl were adjusted to equal absorbances (0.0388) at 499 nm. The ratio of the integrated emission (excitation at 499 nm) of target sequence/biarsenical molecule(III) complex relative to fluorescein was multiplied by 0.9, the quantum yield of fluorescein, giving a quantum yield 0.44 for the target sequence/biarsenical molecule (III) complex.
(§1) This complex has a fluorescence quantum yield of 0.44 with excitation maximum at 508 nm and emission maximum at 528 nm (FIG. 4). The complex was of sufficient stability to remain intact in the presence of up to 100 equivalents of 2,3 dimercapto-1-propanol (BAL). Incubations with BAL were done at room temperature for 15 minutes.
Formation of a complex with target sequence and the dichloro-derivative of the biarsenical molecule (III). Dichloro-derivative of the biarsenical molecule (III) (5 μl of 675 μm solution in DMSO was added to 100 μl of 25 μM target sequence (SEQ ID NO. 1) in 25 mM phosphate, pH 7.4, 100 mM KCl 1 mM mercaptoethanesulfonate. After 1.5 hours, the reaction mixture was injected onto a Dionex IonPac SN1 reverse phase HPLC column, gradient 20% to 46% acetonitrile (0.1% TFA) from 3 to 17 minutes. The complex eluted in two overlapping peaks of the same molecular weight at 16.1 and 16.4 minutes. (Free peptide elutes at 12.6 minutes.) Mass spectrum analysis indicated a molecular weight of 2484.80 Da compared to the calculated molecular weight of the 1:1 complex was 2484.22 Da.

The test system of series [2] is target sequence (SEQ ID NO. 1). Kind of series: Stability of biarsenical molecule (III)/target sequence complex to 2,3 dimercapto-1-propanol (BAL). The format is physicochemical. The following applies: room temperature, 15 minutes; for effect of BAL on complex: 100 nM complex. As for the experimental part:
as §1

In series [3] the target is T1, cyan GFP-target sequence (SEQ ID NO. 4) fusion in HeLa cells (Aequorea victoria, UniProt P42212, F64L/M153T/N146I/N212K/S65T/V163A/Y66W).
T1 construct: expressed in transfected cells; host or cells: HeLa cells, pcDNA3 vector
Briefly: Measurement of FRET in HeLa cells expressing cyan GFP-target sequence fusion. The format is cell-based. The source says: Expression of Cyan GFP-target sequence fusion in HeLa cells. Using standard molecular biology techniques, the target sequence (SEQ ID NO. 4) (with the tryptophan in SEQ ID NO. 1 replaced by an alanine) was attached to cyan fluorescent protein (CFP). CFP is the Green Fluorescent Protein (GFP) of Aequorea victoria with the following additional mutations: F64L, S65T, Y66W, N146I, M153T, V163A, N212K. Miyawaki A., et al. Nature 388:882-7 (1997). Fusion of the target sequence to the C-terminus of cyan GFP was accomplished using a PCR primer. The PCR primer had the following oligonucleotide sequence 5′-CGGCAATTCTTAGGCCCTGGCGCAGCACTCCCTGCAGCAGGCCTCCCTGGCGGCGGCCTCGGCCTTGTACAGCTCGTCCATGCCC-3′ (SEQ ID NO. 2) encoding for the expression of the target sequence. It was inserted into the pcDNA3 vector (Invitrogen, Carlsbad, Calif.) using HindIII and EcoRl restriction sites. After amplification in DH5 bacteria, it was transfected (at 37° C.) into HeLa cells using the Lipofectin system from GibcoBRL.
Measurement of FRET in HeLa cells. Three days after transfection, a concentration of 1.0 μM biarsenical molecule(III) and 10.0 μM ethanedithiol was applied to the transfected cells. Fluorescence changes were observed using a 440DF20 filter (Omega Optical, Brattleboro, Vt.) and a 4% transmittance neutral density filter for excitation and 480DF30 and 635DF50 filters for emission.
HeLa cells expressing the fusion protein were contacted with biarsenical molecule (III) on a fluorescence microscope stage. […] Upon addition of 1.0 μM biarsenical molecule (III) mixed with 10 μM EDT to inhibit background staining, the intensity of fluorescence at 480 nm decreased as energy was transferred from the CFP to the biarsenical molecule (III) which had reacted with the target sequence. There was a corresponding increase in fluorescence in the 635 nm channel due to biarsenical molecule (III)/target sequence emission. Upon removal of the biarsenical molecule (III) solution, there was little change.

A further series has as its target T2, calmodulin+cys4 (Xenopus laevis, UniProt P0DP33, A11C/A2H/E12C/E7C/E8C).
T2 construct: expressed in transfected cells; host or cells: HeLa cells, pcDNA3 vector
Briefly: Labeling of calmodulin+cys4 in transfected HeLa cells (fluorescence microscopy). It is filed as cell-based. The source says: Four cysteines were introduced into the N-terminal α-helix of xenopus calmodulin as shown below:
The mutated calmodulin is referred to as calmodulin+cys4. The substitutions were generated by using as a PCR primer of the following oligonucleotide sequence 5′-CGCGGATCCGCCACCATGCATGACCAACTGACATGCTGCCAGATTTGCTGCTTCAAAGAAGCCTTCTCATTATTC-3′ (SEQ ID NO. 3) encoding for the expression of these substitutions. The nucleic acid sequence encoding the cysteine-substituted calmodulin was inserted into pcDNA3 vector (Invitrogen, Carlsbad, Calif.) using the BamHI and EcoRI restriction sites. After amplification in DH5 bacteria, the vector was transfected (at 37° C.) into HeLa cells using the Lipofectin system from GibcoBRL.
Three days after transfection, the cells were treated with 1 μM biarsenical molecule (III) and 10.0 μM EDT for one hour. […] These lightly stained cells may have expressed the calmodulin+cys4 polypeptide, but at lower levels than the bright cells. […] Removal of the 1.4 neutral density filter was required to see details of the staining of the untransfected cells which appeared to be mitochondrial.

Series [4] can be described thus: Fluorescence of the free biarsenical molecule bonded to EDT. It is filed as physicochemical. The following applies: before reaction with target sequence.
[5] abbreviates: 1.0 μM biarsenical molecule (III) with 10 μM EDT, excitation 440 nm, transfected HeLa cells.

In series [1] (complex with target sequence), `O=C1OC2(c3ccccc31)c1cc(Cl)c(O)c([As]3SCCS3)c1Oc1c2cc(Cl)c(O)c1[As]1SCCS1` [2′,7′-dichloro-4′,5′-bis(2-arsa-1,3-dithiolan-2-yl)fluorescein] showed an emission maximum of 538 nm and an excitation maximum of 518 nm. The red shift in series [1] (dichloro-derivative compared with biarsenical molecule (III)) turned out to be 10 nm.
With `O=C1OC2(c3ccccc31)c1ccc(O)c([As]3SCCS3)c1Oc1c2ccc(O)c1[As]1SCCS1` [biarsenical molecule (III), 4′,5′-bis(2-arsa-1,3-dithiolan-2-yl)fluorescein], in series [1] (complex with target sequence), the emission maximum is on record as 528 nm, the excitation maximum is reported as 508 nm and the “red shift of fluorescent signal relative to fluorescein” value was “about 20 nm”. In series [1] (complex with target sequence, 25 mM phosphate, pH 7.4, 100 mM KCl, excitation at 499 nm, relative to fluorescein), the quantum yield was found to be 0.44. In series [2] (1 μM BAL), the “effect of BAL on complex” value was “barely affected”. In addition, in series [2] (10 μM BAL), the “effect of BAL on complex” value is “barely affected”. Further, the “effect of BAL on complex” value in series [2] (100 μM BAL) is reported as “significant reduction in fluorescence”. In addition, the “BAL at which complex remains intact” value in series [2] is on record as “up to 100 equivalents”. Also, in series [3] (setting [5]), the “fluorescence in the 635 nm channel (complex emission)” value is “increase” and the “intensity of fluorescence at 480 nm (CFP emission)” value is listed as “decreased”. For the same molecule, the “removal of biarsenical molecule from target sequence in cells (reversibility)” value in series [3] (cells treated with 1 mM EDT) is “fast but not complete”. Moreover, in series [3] (excitation 480 nm, signal at 535 nm, after subtraction of CFP signal), the “fluorescence of untransfected cells relative to cells expressing the CFP-target sequence fusion” value is “about 10%”. The “fluorescence of transfected cells” value on calmodulin+cys4 (1 μM biarsenical molecule (III) and 10.0 μM EDT for one hour, HeLa cells transfected with calmodulin+cys4, 480 nm excitation, 535 nm emission) is given as “bright fluorescence”. Besides, the “fluorescence of untransfected cells” value at calmodulin+cys4 (same concentrations of biarsenical molecule (III) and EDT, untransfected HeLa cells) is “only very light fluorescence”. In addition, in series [4], the “fluorescence of free molecule” value was “nonfluorescent”. Besides, the “fluorescence of free molecule” value in series [4] (listed as biarsenical molecule of formula (III)) is on record as “essentially completely nonfluorescent”.
